Results reported in patent US20020165168A1, “USE OF SUGAR DERIVATIVES AS ANTIMICROBIAL, ANTIMYCOTIC AND/OR ANTIVIRAL ACTIVE SUBSTANCES” (priority 1995, published 2002).

Test system: Corynebacterium xerosis
Assay: action against Corynebacterium xerosis
Conditions: qualitative statement, no method or data given

SMILES	action against Corynebacterium xerosis
CCCCCCCCOC1O[C@H](CO)[C@@H](O)[C@H](O)[C@H]1O (stereo partly drawn) [octylglucopyranoside]	very good action
CCCCCCCCCCCCO[C@@H]1O[C@H](CO)[C@@H](O)[C@H](O)[C@H]1O [β-D-dodecylglucopyranoside]	very good action
CCCCCCCCCO[C@@H]1O[C@H](CO)[C@@H](O)[C@H](O)[C@H]1O [β-D-nonylglucopyranoside]	very good action
